Results from US4994479A, “Phenylene derivatives and anti-allergic use thereof” (Yamanouchi Pharmaceutical Co., Ltd., priority 1985, dated 1991).

Experiments:
[1] = tested on: SRS-A-induced contractions of guinea-pig ileum; assay: Inhibition of SRS-A-induced contractions of isolated guinea-pig ileum; set-up: species or system guinea-pig (male Hartley); details: for IC50: Cavia porcellus, 20 min, submaximal concentration of SRS-A, incubation 20 minutes; for anti-SRS-A activity: in words
Method: (§1) Male Hartley guinea- pigs, weighing 500 to 700 g were sacrificed by a blow on the head. The ileum and tracheal strips prepared according to the method of Constantine (1965) were suspended with 1.0 g tension in an organ bath containing 10 ml of Tyrode solution equilibrated with a mixture of 95% O2 and 5% CO2 at 37° C. The tissues were equilibrated for 60 minutes; during this period the Tyrode solution was replaced every 15 minutes and the loading tension was adjusted to 1.0 g. The developed tension of the tissues was measured isometrically with a strain gauge transducer, and recorded on a Recticorder. Both the contractile response of the ileum to submaximal concentration of SRS-A (derived from guinea-pig lung) and tracheal response to 10^-8 M LTD4 were recorded in the absence and then the presence of various concentrations of test compounds. The incubation time of the compounds was 20 minutes.

[2] = tested on: LTD4-induced contractions of guinea-pig trachea; assay: Inhibition of LTD4-induced contractions of isolated guinea-pig trachea; set-up: species or system guinea-pig (male Hartley); details: for IC50: Cavia porcellus, 20 min, 10^-8 M LTD4, incubation 20 minutes; for inhibition of contractions induced by LTD4: in words
Method: as §1

[3] = tested on: LTD4-enhanced vascular permeability; assay: Inhibition of LTD4-enhanced vascular permeability in guinea-pigs; type: in vivo, guinea-pig (male Hartley); details: for ED50: Cavia porcellus, 30 minutes before intradermal 5 ng LTD4; for ED50 / inhibition of LTD4-enhanced vascular permeability: oral; for anti-Leukotriene effect by oral route / inhibition of LTD4-enhanced vascular permeability: in words; for inhibition of LTD4-enhanced vascular permeability: 30 minutes before LTD4
Method: Male Hartley guinea-pigs weighing 270 to 305, g starved for 16 hours, were intradermally injected with 5 ng LTD4 in a volume of 0.1 ml into two sites on the shaved back. In addition, 0.1 ml of vehicle was injected intradermally in each animal to see non-specific irritation. One ml of saline containing 1% Evans […] was intravenously injected 2 minutes before LTD4 injection. The leaked dye at the site of LTD4 or vehicle injection was extracted according to the method of Harada et al. (1971) and measured photometrically at 620 nm. The LTD4 -induced skin reaction was expressed as a difference in the amount of dye between LTD4 and vehicle. Test compounds were orally administered 30 minutes before LTD4 injection.

SMILES	IC50 [1] [µM]	anti-SRS-A activity [1]	IC50 [2] [µM]	inhibition of contractions induced by LTD4 [2]	ED50 [3] [mg/kg]	anti-Leukotriene effect by oral route [3]	inhibition of LTD4-enhanced vascular permeability [3]
O=C(O)COc1ccc(Cl)cc1NC(=O)c1ccc(OCCCCc2ccccc2)cc1 [Example 40, 4-Chloro-2-[p-(4-phenylbutoxy)benzamido]phenoxyacetic acid]	0.0036	potent anti-SRS-A activity	0.057	inhibited the contractions induced by LTD4	5.5	potent anti-Leukotriene effect	dose-dependently inhibited
Cc1ccc(OCC(=O)O)c(NC(=O)c2ccc(OCCCCc3ccccc3)cc2)c1 [Example 39, 4-methyl-2-[p-(4-phenylbutoxy)benzamido]phenoxyacetic acid]	0.0073	potent anti-SRS-A activity	0.25	inhibited the contractions induced by LTD4	36.1	potent anti-Leukotriene effect	dose-dependently inhibited
CCCCCCCOc1cccc(C(=O)Nc2ccccc2OCc2nnn[nH]2)c1 [Example 23, 3-Heptyloxy-2'-(5-tetrazolylmethoxy)benzanilide]	0.044	potent anti-SRS-A activity	0.4	inhibited the contractions induced by LTD4	22.8	potent anti-Leukotriene effect	dose-dependently inhibited
CCOC(=O)CCc1ccccc1NC(=O)c1ccc(OCCCCc2ccccc2)cc1 [Example 10, Ethyl 3-[o-[p-(4-phenylbutoxy)benzamido]phenyl]propionate]	0.018	potent anti-SRS-A activity					
O=C(O)CCc1ccccc1NC(=O)c1ccc(OCCCCc2ccccc2)cc1 [Example 18, 3-[o-[p-(4-Phenylbutoxy)benzamido]phenyl]propionic acid]	0.033	potent anti-SRS-A activity					
O=C(O)COc1ccc([N+](=O)[O-])cc1NC(=O)c1ccc(OCCCCc2ccccc2)cc1 [Example 41, 4-Nitro-2-[p-(4-phenylbutoxy)benzamido]phenoxyacetic acid]	0.0074	potent anti-SRS-A activity					
O=C(O)COc1ccccc1NC(=O)c1ccc(OCCCCc2ccccc2)cc1 [Example 42, o-[p-(4-Phenylbutoxy)benzamido]phenoxyacetic acid]	0.081	potent anti-SRS-A activity					
